Test results: patent US20210052600A1, “THERAPEUTIC AGENTS FOR STRESS URINARY INCONTINENCE AND INCOTINENCE OF FECES” (Takeda Pharmaceutical Company Limited, priority 2017, published 2021)
Structures can show the parent of a compound that is named as a salt. Where two headings read alike, the source gives them in different places.

Columns and labels:
[1] = tested on: urethral resistance increasing effect of Compound A′; assay: Influence of antagonists (SB 242084, methiothepin) on urethral resistance increasing effect of Compound A′ in rats; format: in vivo, rat; settings: mean ± SEM; for LPP Increase: Post minus Pre; for LPP Pre: before administration
Procedure: Ninety female rats of SD strain were used. […] Isoflurane inhalation was added during the surgery, if necessary. In the experiment with intrathecal administration, the dura mater was exposed by laminectomy and then partially opened by incision, through which a catheter (PE-10) filled with saline was then implanted at the level of the L6-S1 site, followed by the closing of the incision. After opening of the abdomen, a catheter (PE-90) was inserted into the bladder. In order to secure reduced urethral resistance, unilateral nerve to iliococcygeus and pubococcygeus muscles was transected. For intraduodenal administration, another catheter (PE-50) was inserted into the duodenum in advance. The abdominal muscle and skin were each closed with sutures. Two (right and left) sites of abdominal skin near the diaphragm were cut to expose abdominal muscle. The bladder was emptied through the catheter, followed by the injection of 0.2 to 0.3 mL of Evans blue solution. Change in intravesical pressure was recorded using the bladder catheter via a pressure transducer, an electric signal amplifier, and an analog-to-digital converter. While change in intravesical pressure was recorded, the presence or absence of fluid leakage from the urethral orifice was observed under the electrical stimulation of the exposed abdominal muscle using an electrical stimulator and an isolator. […] The peak of the intravesical pressure during the stimulation of the abdominal muscle was measured, and the lowest pressure at which the fluid leakage was observed among the trials was defined as LPP for the electrical abdominal muscle stimulation method. In order to examine whether the urethral resistance increasing effect of Compound A′ is based on its agonistic potency on 5-HT2C receptors, SB 242084, methiothepin, or a vehicle was intravenously administered, and Compound A′ or a vehicle was intraduodenally administered 5 minutes later. SB 242084 was dissolved in a mixed solution of N,N-dimethylacetamide and polyethylene glycol 400 (1:1) and administered at 0.03 mg/0.5 mL/kg, 0.1 mg/0.5 mL/kg and 0.3 mg/0.5 mL/kg. Methiothepin was dissolved in saline and administered at 0.03 mg/0.5 mL/kg. 0.1 mg/0.5 mL/kg and 0.3 mg/0.5 mL/kg. Compound A′ was suspended in 0.5% MC and administered at 3 mg/mL/kg. LPP was measured again 30 minutes after Compound A′ administration. In order to examine where Compound A′ works in the body to increase urethral resistance, the blocking of the effect of Compound A′ was confirmed by blocking the functions of Compound A′ by giving methiothepin at a particular site in the body. Particularly, in the experiment with intrathecal administration, methiothepin or a vehicle was intrathecally administered, and Compound A′ or a vehicle was intraduodenally administered 5 minutes later. Methiothepin was dissolved in saline and 20 μL of the obtained solution was administered. Compound A′ was suspended in 0.5% MC and administered at 3 mg/mL/kg. LPP was measured again 30 minutes after Compound A′ administration.
Regarding change in LPP before and after drug administration, the differences between the mean values of the Compound A′-treated and vehicle-treated groups were analyzed by the Student's t test or the Welch's test. In order to analyze the influence of the antagonists on the effect of Compound A′, the differences between the mean values of the SB 242084- or methiothepin- and Compound A′-administered group and the vehicle- and Compound A′-administered group were analyzed by the one-tailed Williams' test.

[2] = Comparison of plasma concentrations for urethra-closing effect and anti-obesity effect (analysis of Examples 1-9 and literature)
[3] = Plasma concentrations in rats 30 minutes after oral administration (effective plasma concentration at LPP10); settings: rat
Procedure: Ten female rats of SD strain were anesthetized with isoflurane. In order to secure the same conditions as those for drug-administered animals, their spinal cord was transected at the T8-T9 (the eighth thoracic cord—the ninth thoracic cord) level. Then, a cannula for blood collection was inserted into the femoral artery. […] These drugs were each dissolved in 0.5% MC. Thirty minutes after oral administration, up to 250 μL of blood was collected from the femoral artery or the tail vein and treated with heparin. The collected blood was immediately cooled on ice and centrifuged under conditions involving 3,000 rpm and 4° C. for 10 minutes to obtain plasma. The plasma samples were stored under conditions of −80° C. until drug quantification.
After thawing of the plasma samples, the internal standard compound was added thereto, and the mixture was then centrifuged under conditions of 5,250 rpm. The drug contained in 60 μL of the supernatant was quantified by LC-MS/MS.

[4] = cited from earlier work
[5] = tested on: urethra-closing reflex response; assay: Urethra-closing reflex response induced by intravesical pressure rise in rats; format: in vivo, rat; settings: 20 mg/kg i.d., mean ± SEM
Procedure: Thirty-two female rats of SD strain were used. The rats were anesthetized with urethane. Isoflurane inhalation was added during the surgery, if necessary. Their spinal cord was transected at the T8-T9 (the eighth thoracic cord—the ninth thoracic cord) level to eliminate the reflex voiding and to inhibit the transition from the urine storage phase to the voiding phase in the voiding cycle. After opening of the abdomen, the bladder neck was ligated with suture, and a catheter (PE-100) was inserted into the bladder. The bladder catheter was connected to a pressure transducer and a saline-containing reservoir via three-way stopcocks. A microtip transducer catheter was inserted from the urethral orifice toward the bladder so that its transducer was inserted into the urethra. Local change in pressure within the urethra (intraurethral pressure) was recorded via an electric signal amplifier and an analog-to-digital converter. […] Then, the reservoir was brought back to the original position to adjust the intravesical pressure to its baseline. Such change in intraurethral pressure induced by intravesical pressure rise was repeatedly measured, and the mean value from the last 2 trials was used as a Pre value. The vehicle used was 0.5% MC. […] Thirty minutes after administration, the change in intraurethral pressure induced by intravesical pressure rise was measured again and used as a Post value. The average value before intravesical pressure rise was subtracted from the average value during intravesical pressure rise, and the subtracted value was used as urethra-closing reflex response. The ratio of the Post value to the Pre value was calculated.

urethral resistance [6] = assay: Rat urethral resistance (LPP) measured by high speed infusion of saline into the bladder; format: in vivo; settings: mean ± SEM; for LPP Post: 30 minutes after administration; for LPP Increase: Post minus Pre; for LPP Pre: before administration
From the text: The rats were anesthetized with isoflurane. Their spinal cord was transected at the T8-T9 (the eighth thoracic cord—the ninth thoracic cord) level. After opening of the bladder dome, two polyethylene tubes (PE-100) were inserted into the bladder. The incised portion of the bladder was closed with sutures, and the other incisions were also closed. The rats were placed in Bollman cages. The catheter for intravesical pressure measurement was connected to a pressure transducer, while the catheter for saline filling was connected to a syringe filled with Evans Blue-dyed saline. Change in intravesical pressure was recorded using the pressure transducer via an electric signal amplifier and an analog-to-digital converter. After recovery of the animals from anesthesia, the intravesical pressure measurement was started, and saline was infused at a speed of 0.1 mL/sec into the bladder using an infusion pump. The infusion was stopped when the leakage of the saline from the urethral orifice was observed. Immediately thereafter, the bladder was emptied by releasing the pressure. In this operation, the peak of recorded intravesical pressure during the saline infusion was used as LPP in this Example. This measurement was repeated, and the average LPP from the last three measurements was used as the LPP value of the trial. The mean from 2 such trials was used as a Pre value. 0.5% MC was used as the vehicle. […] The difference in LPP from the Pre value (increased amount of LPP) was calculated. Regarding change in LPP before and after drug administration, the differences between the mean values of the drug-treated and vehicle-treated groups were analyzed by the one-tailed Williams' test.

urethra-closing response = assay: MT (threshold inducing urethra-closing response) under transcranial magnetic stimulation in healthy female volunteers; format: in vivo, human; settings: for MT of the urethra-closing response in response to TMS, Mean / Rate of change from baseline of MT of the urethra-closing response in response to TMS, Mean: 40 mg capsule single oral dose
Procedure: The test subjects were healthy female volunteers having a body weight of at least 45 kg (average: 50.91 kg, standard deviation: 3.346) and a BMI value of 18.5 kg/m^2 to 25.0 kg/m^2 (average: 19.57 kg/m^2, standard deviation: 0.929).
A washout period of at least 7 days was provided between the treatments.
A capsule containing 40 mg of duloxetine was orally administered as duloxetine together with water. A placebo capsule containing saccharose and spherical starch granules was orally administered as a placebo for duloxetine together with water.
Specifically, during the TMS, the output of a magnetic stimulator (Magstim Rapid Square, manufactured by Magstim Co., Ltd.) was increased by 5% each time using 110 mm double cone coil, and the minimum output at which urethra-closing response occurred abruptly was determined and used as MT (%). The urethra-closing response was detected by measuring contractile responses within the urethra. The contractile response within the urethra was measured using Duet Logic G2 (manufactured by Mediwatch Ltd.) and UniTip (manufactured by Unisensor AG). MT was measured again after administration of each drug, and the rate of change (%) from the baseline was calculated. The rate of change was determined by dividing MT after administration of each drug by MT before administration.

urethral resistance [7] = assay: Urethral resistance (LPP) during intravesical pressure rise by electrical stimulation of rat abdominal muscle; format: in vivo; settings: mean ± SEM; for LPP Post: 30 minutes after administration; for LPP Increase: Post minus Pre; for LPP Pre: before administration
Procedure: Fifty six female rats of Sprague-Dawley strain (hereinafter, referred to as “SD strain”) were used. The rats were anesthetized with urethane, and their spinal cord was transected at the T8-T9 (the eighth thoracic cord—the ninth thoracic cord) level for the elimination of reflex voiding. Isoflurane inhalation was added, if necessary. After opening of the abdomen, a catheter (PE-100) was inserted into the bladder. In order to secure reduced urethral resistance, unilateral nerve to iliococcygeus and pubococcygeus muscles was transected. For intraduodenal administration, another catheter (PE-50) was inserted into the duodenum in advance. The abdominal muscle and skin were each closed with sutures. Two (right and left) sites of abdominal skin near the diaphragm were cut to expose abdominal muscle. The bladder was emptied through the catheter, followed by the injection of 0.2 to 0.3 mL of 0.1% Evans blue solution. Change in intravesical pressure was recorded using the bladder catheter via a pressure transducer, an electric signal amplifier, and an analog-to-digital converter. While change in intravesical pressure was recorded, the presence or absence of fluid leakage from the urethral orifice was observed under the electrical stimulation of the exposed abdominal muscle using an electrical stimulator and an isolator. […] The peak of the intravesical pressure during the stimulation of the abdominal muscle was measured, and the lowest pressure at which the fluid leakage was observed among the trials was defined as leak point pressure (hereinafter, referred to as “LPP”) for the electrical abdominal muscle stimulation method and used as an index for urethral resistance. Each drug was evaluated for its effect by comparing LPP before drug administration with that after drug administration. […] The drugs were suspended in 0.5% methylcellulose solution (MC). […] LPP was measured again 30 minutes after administration. Regarding change in LPP before and after drug administration, the differences between the mean values of the drug-treated and vehicle groups were analyzed by the one-tailed Williams' test.

[8] = methiothepin 10 μg intrathecal + Compound A′ 3 mg/kg i.d.
[9] = methiothepin 30 μg intrathecal + Compound A′ 3 mg/kg i.d.
[10] = methiothepin 0.03 mg/kg i.v. + Compound A′ 3 mg/kg i.d.
[11] = methiothepin 100 μg intrathecal + Compound A′ 0 mg/kg i.d.
[12] = methiothepin 100 μg intrathecal + Compound A′ 3 mg/kg i.d.
[13] = methiothepin 0.1 mg/kg i.v. + Compound A′ 3 mg/kg i.d.
[14] = methiothepin 0.3 mg/kg i.v. + Compound A′ 0 mg/kg i.d.
[15] = methiothepin 0.3 mg/kg i.v. + Compound A′ 3 mg/kg i.d.

Structure (SMILES): CSc1ccc2c(c1)C(N1CCN(C)CC1)Cc1ccccc1S2.O=C(O)/C=C\C(=O)O (stereo not shown) [methiothepin, methiothepin maleate]
- LPP Post ([1]; methiothepin 10 μg intrathecal + Compound A′ 3 mg/kg i.d., 30 minutes after Compound A′): 69.4 ± 10.4 cmH2O
- LPP Increase [1, 8]: 35.3 ± 9.8 cmH2O
- LPP Pre [1, 8]: 34.1 ± 3.2 cmH2O
- LPP Post ([1]; methiothepin 30 μg intrathecal + Compound A′ 3 mg/kg i.d., 30 minutes after Compound A′): 52.1 ± 8.6 cmH2O
- LPP Increase [1, 9]: 11.1 ± 6.5 cmH2O
- LPP Pre [1, 9]: 41.0 ± 3.6 cmH2O
- LPP Increase [1, 10]: 17.9 ± 4.3 cmH2O
- LPP Pre [1, 10]: 44.4 ± 2.5 cmH2O
- LPP Post ([1]; methiothepin 100 μg intrathecal + Compound A′ 0 mg/kg i.d., 30 minutes after i.d. administration): 40.5 ± 3.2 cmH2O
- LPP Increase [1, 11]: −5.3 ± 3.0 cmH2O
- LPP Pre [1, 11]: 45.8 ± 4.8 cmH2O
- LPP Post ([1]; methiothepin 100 μg intrathecal + Compound A′ 3 mg/kg i.d., 30 minutes after Compound A′): 45.9 ± 5.5 cmH2O
- LPP Increase [1, 12]: 5.6 ± 3.5 cmH2O
- LPP Pre [1, 12]: 40.4 ± 3.0 cmH2O
- LPP Post ([1]; methiothepin 0.1 mg/kg i.v. + Compound A′ 3 mg/kg i.d., 30 minutes after Compound A′): 59.9 ± 3.7 cmH2O
- LPP Increase [1, 13]: 9.5 ± 3.3 cmH2O
- LPP Pre [1, 13]: 50.4 ± 4.4 cmH2O
- LPP Post ([1]; methiothepin 0.3 mg/kg i.v. + Compound A′ 0 mg/kg i.d., 30 minutes after i.d. administration): 44.0 ± 7.1 cmH2O
- LPP Increase [1, 14]: −2.0 ± 2.5 cmH2O
- LPP Pre [1, 14]: 46.0 ± 9.6 cmH2O
- LPP Post ([1]; methiothepin 0.3 mg/kg i.v. + Compound A′ 3 mg/kg i.d., 30 minutes after Compound A′): 40.6 ± 4.9 cmH2O
- LPP Increase [1, 15]: −2.2 ± 2.9 cmH2O
- LPP Pre [1, 15]: 42.9 ± 3.8 cmH2O

Structure (SMILES): C[C@H]1CNCCc2ccc(Cl)cc21 [Compound B, (R)-8-chloro-1-methyl-2,3,4,5-tetrahydro-1H-3-benzazepine]
- plasma concentration estimated to show sufficient effects on urethra-closing function in humans ([2]; second analysis: 14-fold lower than 43 ng/mL): around 3 ng/mL
- concentration at 30 min ([3]; female, SD, plasma, po, 4 mg/kg): 32.9 ± 18 ng/mL
- plasma concentration at LPP10 ([3]; measured concentration multiplied by ratio between dosage used and LPP10): 9.9 ng/mL
- average plasma concentration in a day (steady state) giving a body weight lowering effect greater than placebo by 3.8% in humans ([4]; 10 mg b.i.d. (launched dose), free form): 43 ng/mL
- average plasma concentration in a day (steady state) giving a body weight lowering effect greater than placebo by 2.6% in humans ([4]; 10 mg q.d., free form): 24 ng/mL
- blood concentration ([4]; after a single administration of a sustained release formulation containing 20 mg): 39 ng/mL
- plasma concentration Cmin ([4]; launched dose 10 mg bid): 26 ng/mL
- blood concentration ([4]; sustained release formulation containing 20 mg once daily): 74 ng/mL

Structure (SMILES): CNCC[C@H](Oc1cccc2ccccc12)c1cccs1 [Duloxetine, duloxetine hydrochloride]
- maximal urethral resistance increasing effect (LPP elevation) in rats ([2]; summary of Examples 2 and 5): around 10 cmH2O
- Urethra-closing reflex response Post ([5]; 30 minutes after administration, intravesical pressure rise by 50 cm H2O): 8.66 ± 1.34 cmH2O
- Urethra-closing reflex response Pre ([5]; before administration, intravesical pressure rise by 50 cm H2O): 4.88 ± 0.86 cmH2O
- Urethra-closing reflex response Ratio (Post/Pr) ([5]; ratio of Post value to Pre value): 2.00 ± 0.28
- LPP Post (urethral resistance [6]; 5 mg/kg p.o.): 64.1 ± 5.5 cmH2O
- LPP Increase (urethral resistance [6]; 5 mg/kg p.o.): 4.2 ± 1.7 cmH2O
- LPP Pre (urethral resistance [6]; 5 mg/kg p.o.): 59.9 ± 5.1 cmH2O
- LPP Post (urethral resistance [6]; 10 mg/kg p.o.): 67.6 ± 3.5 cmH2O
- LPP Increase (urethral resistance [6]; 10 mg/kg p.o.): 7.7 ± 2.2 cmH2O
- LPP Pre (urethral resistance [6]; 10 mg/kg p.o.): 59.8 ± 3.8 cmH2O
- LPP Post (urethral resistance [6]; 20 mg/kg p.o.): 69.8 ± 4.0 cmH2O
- LPP Increase (urethral resistance [6]; 20 mg/kg p.o.): 11.9 ± 3.7 cmH2O
- LPP Pre (urethral resistance [6]; 20 mg/kg p.o.): 57.9 ± 2.7 cmH2O
- LPP Post (urethral resistance [6]; 40 mg/kg p.o.): 73.3 ± 5.3 cmH2O
- LPP Increase (urethral resistance [6]; 40 mg/kg p.o.): 13.1 ± 2.9 cmH2O
- LPP Pre (urethral resistance [6]; 40 mg/kg p.o.): 60.2 ± 3.1 cmH2O
- MT of the urethra-closing response in response to TMS, Mean (urethra-closing response; 0.5 hr): 67.4%
- Rate of change from baseline of MT of the urethra-closing response in response to TMS, Mean (urethra-closing response; 0.5 hr): −0.4%
- MT of the urethra-closing response in response to TMS, Mean (urethra-closing response; 2 hr): 62.0%
- Rate of change from baseline of MT of the urethra-closing response in response to TMS, Mean (urethra-closing response; 2 hr): −5.9%
- MT of the urethra-closing response in response to TMS, Mean (urethra-closing response; 6 hr): 56.4%
- Rate of change from baseline of MT of the urethra-closing response in response to TMS, Mean (urethra-closing response; 6 hr): −11.8%
- MT of the urethra-closing response in response to TMS, Mean (urethra-closing response; Predose): 67.8%
- maximum change from baseline in MT in response to TMS (urethra-closing response; 40 mg group, at 6 hours post dose): −11.8%
- LPP Post (urethral resistance [7]; 5 mg/kg i.d.): 38.3 ± 2.7 cmH2O
- LPP Increase (urethral resistance [7]; 5 mg/kg i.d.): 1.7 ± 1.4 cmH2O
- LPP Pre (urethral resistance [7]; 5 mg/kg i.d.): 36.6 ± 3.0 cmH2O
- LPP Post (urethral resistance [7]; 10 mg/kg i.d.): 39.1 ± 2.9 cmH2O
- LPP Increase (urethral resistance [7]; 10 mg/kg i.d.): 3.7 ± 2.3 cmH2O
- LPP Pre (urethral resistance [7]; 10 mg/kg i.d.): 35.3 ± 3.0 cmH2O
- LPP Post (urethral resistance [7]; 20 mg/kg i.d.): 46.6 ± 5.7 cmH2O
- LPP Increase (urethral resistance [7]; 20 mg/kg i.d.): 9.7 ± 3.5 cmH2O
- LPP Pre (urethral resistance [7]; 20 mg/kg i.d.): 36.9 ± 2.8 cmH2O
